For orientation: EC50 means the concentration needed to bring the measured effect to its halfway point.

The target in one experiment is T1, human GIP receptor (Homo sapiens, UniProt P48546).
T1 construct: expressed in transfected cells; host or cells: BHK (parent line BHKTS13), clone BHK CRE luc2P hGIPR
T1 sequence (P48546 22-466): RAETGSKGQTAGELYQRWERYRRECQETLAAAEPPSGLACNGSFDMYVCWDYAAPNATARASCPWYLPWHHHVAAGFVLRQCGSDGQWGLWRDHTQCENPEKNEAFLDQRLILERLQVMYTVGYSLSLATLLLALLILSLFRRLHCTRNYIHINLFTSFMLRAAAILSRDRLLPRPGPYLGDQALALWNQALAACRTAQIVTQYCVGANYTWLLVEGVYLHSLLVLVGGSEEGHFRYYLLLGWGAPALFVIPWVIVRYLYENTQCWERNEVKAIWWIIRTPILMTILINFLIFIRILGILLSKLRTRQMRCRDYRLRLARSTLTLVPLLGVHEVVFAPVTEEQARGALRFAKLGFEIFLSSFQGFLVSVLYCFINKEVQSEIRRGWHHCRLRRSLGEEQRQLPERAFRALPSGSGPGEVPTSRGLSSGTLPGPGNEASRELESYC
Briefly: In vitro functional potency, CRE luciferase reporter, whole BHK cells (hGIPR). It counts as cell-based. The conditions noted are these: BHK CRE luc2P hGIPR cells. In outline:
(§1)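 BHK CRE luc2P cells stably expressing hGIPR or hGLP-1R were seeded at 5000 cells/well overnight. They were treated 3 h at 37° C with a 12-point, 3.5-fold compound series in buffer with or without HSA, and luciferase luminescence was read. Values come from log(agonist)-response regression, averaging at least two replicates.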
A general note: Reporter assays use an easily measured gene product as a stand-in for the process of interest.

In another experiment the target is human GLP-1 receptor (Homo sapiens, UniProt P43220). Briefly: In vitro functional potency, CRE luciferase reporter, whole BHK cells (hGLP-1R). The conditions noted are these: BHK CRE luc2P hGLP-1R cells. It is filed as cell-based. The arrangement: expressed in transfected cells; host or cells: BHK (parent line BHKTS13), clone BHK CRE luc2P hGLP-1R. In outline:
as §1

The mark [1] stands for this setting: 0% HSA, read-out: hGIPR, CRE Luc 0% HSA EC50.
Setting [2] is: hGIPR, CRE Luc 1% HSA EC50, 1% HSA.
The mark [3] stands for this setting: 0% HSA, read-out: hGLP-1R, CRE Luc 0% HSA EC50.
Where [4] appears, read: hGLP-1R, CRE Luc 1% HSA EC50, 1% HSA.

The structures appear in SMILES notation. Read-outs that look alike come from different tables or passages of the source. Starred links: 1 amine or outer side, 2 acyl side, 3 side chain; linkers in the order of their positions; H or OH if unused. Non-standard residues stand in square brackets, D forms with d. Residues, ends and D or L forms follow the SMILES beside them. Groups on a side chain read outwards from the residue. *: point of attachment. C18 diacid = O=C(O)CCCCCCCCCCCCCCCCC(=O)*; γGlu = O=C(O)[C@H](CCC(=O)[*:2])N[*:1]; εLys = N[C@@H](CCCCN[*:1])C(=O)[*:2]; AEEA = NCCOCCOCC(=O)O; Aib = CC(C)(N)C(=O)O

human GLP-1 receptor, sequence (P43220 24-463): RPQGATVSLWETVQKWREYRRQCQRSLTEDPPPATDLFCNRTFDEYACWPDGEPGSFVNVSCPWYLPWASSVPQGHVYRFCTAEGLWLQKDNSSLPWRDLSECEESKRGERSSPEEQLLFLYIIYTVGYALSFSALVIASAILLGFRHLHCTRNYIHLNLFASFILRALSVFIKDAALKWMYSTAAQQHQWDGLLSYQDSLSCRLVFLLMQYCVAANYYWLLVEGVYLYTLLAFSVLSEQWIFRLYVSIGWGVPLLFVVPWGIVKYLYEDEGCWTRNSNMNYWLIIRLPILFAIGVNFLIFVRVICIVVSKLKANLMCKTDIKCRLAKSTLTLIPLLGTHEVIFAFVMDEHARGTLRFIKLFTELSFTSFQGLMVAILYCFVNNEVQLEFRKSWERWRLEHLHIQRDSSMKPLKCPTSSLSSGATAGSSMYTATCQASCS

On to `CC[C@H](C)[C@H](NC(=O)[C@H](Cc1ccccc1)NC(=O)[C@H](CCC(=O)O)NC(=O)[C@H](CCCNC(=N)N)NC(=O)[C@H](C)NC(=O)[C@H](C)NC(=O)[C@H](CCC(N)=O)NC(=O)[C@H](CCCCNC(=O)COCCOCCNC(=O)COCCOCCNC(=O)CC[C@H](NC(=O)CCCCCCCCCCCCCCCCC(=O)O)C(=O)O)NC(=O)[C@H](CCC(=O)O)NC(=O)[C@H](CC(C)C)NC(=O)[C@@H](NC(=O)[C@@H](NC(=O)[C@H](CO)NC(=O)[C@H](Cc1ccc(O)cc1)NC(=O)[C@H](CC(=O)O)NC(=O)[C@H](CO)NC(=O)[C@@H](NC(=O)[C@H](Cc1ccccc1)NC(=O)[C@@H](NC(=O)CNC(=O)[C@H](CCC(=O)O)NC(=O)C(C)(C)NC(=O)[C@@H](N)Cc1ccc(O)cc1)[C@@H](C)O)[C@@H](C)O)[C@@H](C)CC)[C@@H](C)CC)C(=O)N[C@@H](CC(N)=O)C(=O)N[C@@H](Cc1c[nH]c2ccccc12)C(=O)N[C@@H](CC(C)C)C(=O)N[C@@H](CC(C)C)C(=O)N[C@@H](C)C(=O)NCC(=O)NCC(=O)N1CCC[C@H]1C(=O)N[C@@H](CO)C(=O)N[C@@H](CO)C(=O)NCC(=O)N[C@@H](C)C(=O)N1CCC[C@H]1C(=O)N1CCC[C@H]1C(=O)N1CCC[C@H]1C(=O)N[C@@H](CO)C(=O)O` [Compound 36] (H-Y[Aib]EGTFTSDYSIILEK([AEEA-AEEA-γGlu-C18 diacid])QAAREFINWLLAGGPSSGAPPPS-OH), for which the EC50 at human GIP receptor (setting [1]) was determined as 0.0055 nM; at human GIP receptor (setting [2]), 0.356 nM; at human GLP-1 receptor (setting [3]), 0.0047 nM; on human GLP-1 receptor (setting [4]) it was 0.414 nM.
The like results for `CC[C@H](C)[C@H](NC(=O)[C@H](Cc1ccccc1)NC(=O)[C@H](CCC(=O)O)NC(=O)[C@H](CCCNC(=N)N)NC(=O)[C@H](C)NC(=O)[C@H](C)NC(=O)[C@H](CCC(N)=O)NC(=O)[C@H](CCCCNC(=O)COCCOCCNC(=O)COCCOCCNC(=O)CC[C@H](NC(=O)CCCCCCCCCCCCCCCCC(=O)O)C(=O)O)NC(=O)[C@H](CCC(=O)O)NC(=O)[C@H](CC(C)C)NC(=O)[C@H](CC(C)C)NC(=O)[C@@H](NC(=O)[C@H](CO)NC(=O)[C@H](Cc1ccc(O)cc1)NC(=O)[C@H](CC(=O)O)NC(=O)[C@H](CO)NC(=O)[C@@H](NC(=O)[C@H](Cc1ccccc1)NC(=O)[C@@H](NC(=O)CNC(=O)[C@H](CCC(=O)O)NC(=O)C(C)(C)NC(=O)[C@@H](N)Cc1ccc(O)cc1)[C@@H](C)O)[C@@H](C)O)[C@@H](C)CC)C(=O)N[C@@H](CC(N)=O)C(=O)N[C@@H](Cc1c[nH]c2ccccc12)C(=O)N[C@@H](CC(C)C)C(=O)N[C@@H](CC(C)C)C(=O)N[C@@H](C)C(=O)NCC(=O)NCC(=O)N1CCC[C@H]1C(=O)N[C@@H](CO)C(=O)N[C@@H](CO)C(=O)NCC(=O)N[C@@H](C)C(=O)N1CCC[C@H]1C(=O)N1CCC[C@H]1C(=O)N1CCC[C@H]1C(=O)N[C@@H](CO)C(=O)O` [Compound 35] (H-Y[Aib]EGTFTSDYSILLEK([AEEA-AEEA-γGlu-C18 diacid])QAAREFINWLLAGGPSSGAPPPS-OH) were, in that order, 0.0052 nM, 0.303 nM, 0.003 nM and 0.413 nM.
For `CC[C@H](C)[C@H](NC(=O)[C@H](Cc1ccccc1)NC(=O)[C@H](CCCCNC(=O)[C@@H](N)CCCCNC(=O)[C@@H](N)CCCCNC(=O)CC[C@H](NC(=O)CCCCCCCCCCCCCCCCC(=O)O)C(=O)O)NC(=O)[C@H](CCCNC(=N)N)NC(=O)[C@H](C)NC(=O)[C@H](C)NC(=O)[C@H](CCC(N)=O)NC(=O)[C@H](CCC(=O)O)NC(=O)[C@H](CCC(=O)O)NC(=O)[C@H](CC(C)C)NC(=O)[C@H](CC(C)C)NC(=O)[C@@H](NC(=O)[C@H](CO)NC(=O)[C@H](Cc1ccc(O)cc1)NC(=O)[C@H](CC(=O)O)NC(=O)[C@H](CO)NC(=O)[C@@H](NC(=O)[C@H](Cc1ccccc1)NC(=O)[C@@H](NC(=O)CNC(=O)[C@H](CCC(=O)O)NC(=O)C(C)(C)NC(=O)[C@@H](N)Cc1ccc(O)cc1)[C@@H](C)O)[C@@H](C)O)[C@@H](C)CC)C(=O)N[C@@H](CC(N)=O)C(=O)N[C@@H](Cc1c[nH]c2ccccc12)C(=O)N[C@@H](CC(C)C)C(=O)N[C@@H](CC(C)C)C(=O)N[C@@H](C)C(=O)NCC(=O)NCC(=O)N1CCC[C@H]1C(=O)N[C@@H](CO)C(=O)N[C@@H](CO)C(=O)NCC(=O)N[C@@H](C)C(=O)N1CCC[C@H]1C(=O)N1CCC[C@H]1C(=O)N1CCC[C@H]1C(=O)N[C@@H](CO)C(=O)O` [Compound 39] (H-Y[Aib]EGTFTSDYSILLEEQAARK([εLys-εLys-γGlu-C18 diacid])FINWLLAGGPSSGAPPPS-OH) the same measures were 0.0284 nM, 0.365 nM, 0.0082 nM and 0.135 nM.
Regarding `CC[C@H](C)[C@H](NC(=O)[C@H](Cc1ccccc1)NC(=O)[C@H](CCC(=O)O)NC(=O)[C@H](CCCNC(=N)N)NC(=O)[C@H](C)NC(=O)[C@H](C)NC(=O)[C@H](CCC(N)=O)NC(=O)[C@H](CCCCNC(=O)[C@@H](N)CCCCNC(=O)[C@@H](N)CCCCNC(=O)CC[C@H](NC(=O)CCCCCCCCCCCCCCCCC(=O)O)C(=O)O)NC(=O)[C@H](CCC(=O)O)NC(=O)[C@H](CC(C)C)NC(=O)[C@H](CC(C)C)NC(=O)[C@@H](NC(=O)[C@H](CO)NC(=O)[C@H](Cc1ccc(O)cc1)NC(=O)[C@H](CC(=O)O)NC(=O)[C@H](CO)NC(=O)[C@@H](NC(=O)[C@H](Cc1ccccc1)NC(=O)[C@@H](NC(=O)CNC(=O)[C@H](CCC(=O)O)NC(=O)C(C)(C)NC(=O)[C@@H](N)Cc1ccc(O)cc1)[C@@H](C)O)[C@@H](C)O)[C@@H](C)CC)C(=O)N[C@@H](CC(N)=O)C(=O)N[C@@H](Cc1c[nH]c2ccccc12)C(=O)N[C@@H](CC(C)C)C(=O)N[C@@H](CC(C)C)C(=O)N[C@@H](C)C(=O)NCC(=O)NCC(=O)N1CCC[C@H]1C(=O)N[C@@H](CO)C(=O)N[C@@H](CO)C(=O)NCC(=O)N[C@@H](C)C(=O)O` [Compound 21] (H-Y[Aib]EGTFTSDYSILLEK([εLys-εLys-γGlu-C18 diacid])QAAREFINWLLAGGPSSGA-OH), the EC50 on human GIP receptor (hGIPR, CRE Luc 0% HSA EC50, 0% HSA) turned out to be 0.0054 nM; on human GIP receptor (setting [2]), 0.131 nM; at human GLP-1 receptor (hGLP-1R, CRE Luc 0% HSA EC50, 0% HSA), 0.0057 nM; on human GLP-1 receptor (setting [4]), 0.118 nM.
Take `CC[C@H](C)[C@H](NC(=O)[C@H](Cc1ccccc1)NC(=O)[C@H](CCC(=O)O)NC(=O)[C@H](CCCNC(=N)N)NC(=O)[C@H](C)NC(=O)[C@H](C)NC(=O)[C@H](CCC(N)=O)NC(=O)[C@H](CCCCNC(=O)[C@@H](N)CCCCNC(=O)[C@@H](N)CCCCNC(=O)CC[C@H](NC(=O)CCCCCCCCCCCCCCCCC(=O)O)C(=O)O)NC(=O)[C@H](CCC(=O)O)NC(=O)[C@H](CC(C)C)NC(=O)[C@H](CC(C)C)NC(=O)[C@@H](NC(=O)[C@H](CO)NC(=O)[C@H](Cc1ccc(O)cc1)NC(=O)[C@H](CC(=O)O)NC(=O)[C@H](CO)NC(=O)[C@@H](NC(=O)[C@H](Cc1ccccc1)NC(=O)[C@@H](NC(=O)CNC(=O)[C@H](CCC(=O)O)NC(=O)C(C)(C)NC(=O)[C@@H](N)Cc1ccc(O)cc1)[C@@H](C)O)[C@@H](C)O)[C@@H](C)CC)C(=O)N[C@@H](CCC(=O)O)C(=O)N[C@@H](Cc1c[nH]c2ccccc12)C(=O)N[C@@H](CC(C)C)C(=O)N[C@@H](CC(C)C)C(=O)N[C@@H](CCCNC(=N)N)C(=O)NCC(=O)NCC(=O)N1CCC[C@H]1C(=O)N[C@@H](CO)C(=O)N[C@@H](CO)C(=O)NCC(=O)N[C@@H](C)C(=O)N1CCC[C@H]1C(=O)N1CCC[C@H]1C(=O)N1CCC[C@H]1C(=O)N[C@@H](CO)C(=O)O` [Compound 27] (H-Y[Aib]EGTFTSDYSILLEK([εLys-εLys-γGlu-C18 diacid])QAAREFIEWLLRGGPSSGAPPPS-OH): the EC50 worked out at 0.0063 nM at human GIP receptor (setting [1]), 0.132 nM at human GIP receptor (setting [2]), 0.0046 nM at human GLP-1 receptor (setting [3]) and 0.127 nM on human GLP-1 receptor (setting [4]).

Values taken from patent publication US20220177538A1, “CO-AGONISTS AT GLP-1 AND GIP RECEPTORS SUITABLE FOR ORAL DELIVERY” (Novo Nordisk A/S, priority 2020, published 2022).
